Measured values as given in patent US6844352B2, “1′-[4-[1-(4-fluorophenyl)-1H-indole-3-yl]-1-butyl]-spiro[isobenzofuran-1(3H),4′-piperidine] hydrohalogenides” (H. Lundbeck A/S, priority 1997, dated 2005).

Legend:
[1] = Bioavailability experiments in rats; format: in vivo
[2] = Bioavailability study after multiple oral administration in Beagle dogs (serum levels by HPLC); format: in vivo; conditions: both sexes, dog, area under serum concentration versus time curve 0-24 hours after dosing on day 7, 10 mg/kg/day (as free base) orally in gelatine capsules for 7 days, read-out: AUC0-24.7 Mean
Description: After multiple administration in Beagle dogs, the bioavailability of the salts of 1′-[4-[1-(4-fluorophenyl)-1H-indole-3-yl]-1-butyl]-spiro[isobenzofuran-1(3H),4′-piperidine] was investigated as described in the following study:
Two groups, each consisting of four Beagle dogs (2 males and 2 females) were used in the study.
The dogs in the individual groups were given single daily doses of 10 mg/kg/day (calculated as free base) of the fumarate and the hydrochloride of 1′-[4-[1-(4-fluorophenyl)-1H-indole-3-yl]-1-butyl]-spiro[isobenzofuran-1(3H),4′-piperidine] for seven days.
Blood samples for serum preparation were drawn from the test animals at specific nominal time points before and after dosing on each day and analyzed using HPLC. […]
Single doses of the different salts corresponding to 10.0 mg (˜21997 nmol ) of 1′-[4-[1-(4-fluorophenyl)-1H-indole-3-yl]-1-butyl]-spiro[isobenzofuran-1(3H),4′-piperidine] per kg body weight were accurately weighed into gelatine capsules. The calculated amounts of test compound for each dog were based on body weights measured at study start. […]
The exact blood sampling times for each dog relative to the first dose were recorded. […]
The serum samples obtained were analysed for content of 1′-[4-[1-(4-fluorophenyl)-1H-indole-3-yl]-1-butyl]-spiro[isobenzofuran-1(3H),4′-piperidine] by a pseudo-normal phase HPLC-method after liquid-liquid extraction. […]

[3] = Bioavailability experiments in dogs; format: in vivo
Aqueous solubility = format: physicochemical
rats = conditions: cited from earlier work
sigma receptors = conditions: cited from earlier work
sigma receptor = conditions: cited from earlier work

Fc1ccc(-n2cc(CCCCN3CCC4(CC3)OCc3ccccc34)c3ccccc32)cc1.O=C(O)/C=C/C(=O)O [Fumarate, 1′-[4-[1-(4-fluorophenyl)-1H-indole-3-yl]-1-butyl]-spiro[isobenzofuran-1(3H),4′-piperidine], fumarate]
bioavailability [1]: limited bioavailablity | AUC(0-t) [2]: 4.02 µM·h | bioavailability [3]: limited bioavailablity | aqueous solubility (Aqueous solubility): very low

Cl.Fc1ccc(-n2cc(CCCCN3CCC4(CC3)OCc3ccccc34)c3ccccc32)cc1 [Hydrochloride, 1′-[4-[1-(4-fluorophenyl)-1H-indole-3-yl]-1-butyl]-spiro[isobenzofuran-1(3H),4′-piperidine], hydrochloride]
AUC(0-t) [2]: 12 µM·h | water solubility compared to the fumarate (Aqueous solubility): improved water solubility

Fc1ccc(-n2cc(CCCCN3CCC4(CC3)OCc3ccccc34)c3ccccc32)cc1 [free base, 1′-[4-[1-(4-fluorophenyl)-1H-indole-3-yl]-1-butyl]-spiro[isobenzofuran-1(3H),4′-piperidine]]
anxiolytic potential in black/white exploration test (rats): active over a large dose range | sigma ligand potency and selectivity (sigma receptors): potent and selective sigma ligand | aqueous solubility (Aqueous solubility): very low

C[C@@H]1CN(CCCn2c3ccccc3c3ccccc32)C[C@H](C)N1 [rimcazole]
clinical effect in the treatment of psychoses (sigma receptor): clinically shows effect
